Assay results taken from ChEMBL document CHEMBL1201862, “PubChem BioAssay data set” (2004).
Where a name gives a salt, the structure may show the parent alone.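 Test compounds were applied to cells in 96-well plates for 48 hours at 5 doses. GI50 = concentration required for 50% inhibition of growth.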 Calls of active or inactive are those of the source. Rule as the data show it: active = GI50 up to about 1.1 µM and inactive = higher.

Legend:
Test in all cases: growth of human tumour cells (NCI), 48 h
786-0 = test system: 786-0
A549 = test system: A549
BT-549 = test system: BT-549
CCRF-CEM = test system: CCRF-CEM
EKVX = test system: EKVX
HL-60 = test system: HL-60
IGROV-1 = test system: IGROV-1
K562 = test system: K562
MCF7 = test system: MCF7
MDA-MB-435 = test system: MDA-MB-435
MDA-N = test system: MDA-N
MOLT-4 = test system: MOLT-4
OVCAR-3 = test system: OVCAR-3
OVCAR-5 = test system: OVCAR-5
SF-539 = test system: SF-539
SK-MEL-28 = test system: SK-MEL-28
SK-OV-3 = test system: SK-OV-3
SW-620 = test system: SW-620
TK-10 = test system: TK-10
UO-31 = test system: UO-31

| SMILES | GI50 (786-0) | GI50 (A549) | GI50 (BT-549) | GI50 (CCRF-CEM) | GI50 (EKVX) | GI50 (HL-60) | GI50 (IGROV-1) | GI50 (K562) | GI50 (MCF7) | GI50 (MDA-MB-435) | GI50 (MDA-N) | GI50 (MOLT-4) | GI50 (OVCAR-3) | GI50 (OVCAR-5) | GI50 (SF-539) | GI50 (SK-MEL-28) | GI50 (SK-OV-3) | GI50 (SW-620) | GI50 (TK-10) | GI50 (UO-31) |
| --- | --- | --- | --- | --- | --- | --- | --- | --- | --- | --- | --- | --- | --- | --- | --- | --- | --- | --- | --- | --- |
| CC(C)CNC(=O)Cn1c(-c2ccccc2)cc2ccccc21 | > 100 µM (inactive) | > 100 µM (inactive) | > 100 µM (inactive) | > 100 µM (inactive) | > 100 µM (inactive) | > 100 µM (inactive) | > 100 µM (inactive) | > 100 µM (inactive) | > 100 µM (inactive) | > 100 µM (inactive) | > 100 µM (inactive) | > 100 µM (inactive) | > 100 µM (inactive) | > 100 µM (inactive) | > 100 µM (inactive) | > 100 µM (inactive) | > 100 µM (inactive) | > 100 µM (inactive) | > 100 µM (inactive) | > 100 µM (inactive) |
| Cc1ccc2nc(/C=N/c3ccccc3Cl)cc(C)c2c1 | 16.7 µM (inactive) | > 100 µM (inactive) | 16.1 µM (inactive) | 4.89 µM (inactive) | 20.4 µM (inactive) | 2.73 µM (inactive) | 18.9 µM (inactive) | 19.1 µM (inactive) | 17.5 µM (inactive) | 12.7 µM (inactive) | 5.57 µM (inactive) | 5.79 µM (inactive) | 17.5 µM (inactive) | 42.3 µM (inactive) | 16.5 µM (inactive) | 18.9 µM (inactive) | 27.4 µM (inactive) | 13.1 µM (inactive) | 30.3 µM (inactive) | 16.5 µM (inactive) |
| CN(C)CCC(=O)[C@@]1(O)CC[C@H]2[C@@H]3CC=C4C[C@@H](O)CC[C@]4(C)[C@H]3CC[C@@]21C | 3.68 µM (inactive) | 37.1 µM (inactive) | 17.9 µM (inactive) | 5.25 µM (inactive) | 20.7 µM (inactive) | 17.4 µM (inactive) | 17.8 µM (inactive) | 18.2 µM (inactive) | 4.38 µM (inactive) | 18.2 µM (inactive) | 17.7 µM (inactive) | 13.9 µM (inactive) | 9.02 µM (inactive) | > 61.5 µM (inactive) | 2.6 µM (inactive) | 17.2 µM (inactive) | 29.8 µM (inactive) | 17.9 µM (inactive) | 2.1 µM (inactive) | 15.6 µM (inactive) |
| COc1ccc(-c2cc(-c3ccccc3)nc(/N=C\c3ccccc3)n2)c(O)c1 | > 100 µM (inactive) | 26.4 µM (inactive) | > 31.3 µM (inactive) | 4.06 µM (inactive) | > 26.4 µM (inactive) | 2.71 µM (inactive) | 11.5 µM (inactive) | 2.44 µM (inactive) | 1.64 µM (inactive) | 3.72 µM (inactive) | 5.02 µM (inactive) | 4.04 µM (inactive) | > 52.2 µM (inactive) | > 100 µM (inactive) | > 100 µM (inactive) | > 100 µM (inactive) | 7.52 µM (inactive) | 8 µM (inactive) | > 100 µM (inactive) | 3.99 µM (inactive) |
| COc1cc(OC)c(-n2[nH]c(=O)n(C)c2=O)c(OC)c1 | > 100 µM (inactive) | > 100 µM (inactive) | > 100 µM (inactive) | > 100 µM (inactive) | > 100 µM (inactive) | > 100 µM (inactive) | > 100 µM (inactive) | > 100 µM (inactive) | > 100 µM (inactive) | > 100 µM (inactive) | > 100 µM (inactive) | > 100 µM (inactive) | > 100 µM (inactive) | > 100 µM (inactive) | > 100 µM (inactive) | > 100 µM (inactive) | > 100 µM (inactive) | > 100 µM (inactive) | > 100 µM (inactive) | > 100 µM (inactive) |
| CCOP(=O)(OCC)OC1c2[nH]cc(C(=O)OCc3ccccc3)c2-c2cc(C(=O)OC)[nH]c2C1OC (stereo not given) | 7.76 µM (inactive) | 5.85 µM (inactive) | 12.1 µM (inactive) | > 24.8 µM (inactive) | 5.94 µM (inactive) | 6.15 µM (inactive) | 7.59 µM (inactive) | > 20 µM (inactive) | 8.67 µM (inactive) | > 60.1 µM (inactive) | 17.5 µM (inactive) | 3.58 µM (inactive) | 11.2 µM (inactive) | 37 µM (inactive) | 8.45 µM (inactive) | 4.94 µM (inactive) | 17.7 µM (inactive) | 14.5 µM (inactive) | 4.91 µM (inactive) | 4.57 µM (inactive) |
| CCOC(=O)c1cc(C2CCN(c3ccccc3)C2=O)c(C(=O)/C=C(/C)O)[nH]1 (stereo not given) | 54.5 µM (inactive) | 93.8 µM (inactive) | 61.2 µM (inactive) | 59.6 µM (inactive) | 24.7 µM (inactive) | 27.2 µM (inactive) | > 100 µM (inactive) | 64 µM (inactive) | 59.8 µM (inactive) | 60.8 µM (inactive) | 58.6 µM (inactive) | 42.7 µM (inactive) | > 100 µM (inactive) | > 100 µM (inactive) | 8.38 µM (inactive) | > 100 µM (inactive) | 96.4 µM (inactive) | > 100 µM (inactive) | > 100 µM (inactive) | 66.7 µM (inactive) |
| Cc1ncc([N+](=O)[O-])n1CCNCCCCn1ccnc1[N+](=O)[O-] | > 100 µM (inactive) | > 100 µM (inactive) | 45.5 µM (inactive) | > 100 µM (inactive) | > 100 µM (inactive) | > 100 µM (inactive) | > 100 µM (inactive) | > 100 µM (inactive) | > 100 µM (inactive) | > 100 µM (inactive) | > 100 µM (inactive) | > 100 µM (inactive) | > 100 µM (inactive) | > 100 µM (inactive) | > 100 µM (inactive) | > 100 µM (inactive) | > 100 µM (inactive) | > 100 µM (inactive) | > 100 µM (inactive) | > 100 µM (inactive) |
| O=C1C(CN2CCCC2)CCC1CN1CCCC1 (stereo not given) | 15.8 µM (inactive) | > 100 µM (inactive) | 17.5 µM (inactive) | 3.52 µM (inactive) | > 49.7 µM (inactive) | 2.42 µM (inactive) | 27.9 µM (inactive) | 2.9 µM (inactive) | 19.4 µM (inactive) | 17.6 µM (inactive) | 16 µM (inactive) | 5.31 µM (inactive) | 17.1 µM (inactive) | > 41.3 µM (inactive) | 19.5 µM (inactive) | 18.7 µM (inactive) | > 100 µM (inactive) | 4.12 µM (inactive) | 18.3 µM (inactive) | 17.8 µM (inactive) |
| C/C(=C\COc1cc(O)c2c(c1)C(=O)c1cc(C)cc(O)c1C2=O)CCC1OC1(C)C (stereo not given) | 58.2 µM (inactive) | 85.5 µM (inactive) | 26.7 µM (inactive) | 11.2 µM (inactive) | > 100 µM (inactive) | > 10 µM (inactive) | 68.9 µM (inactive) | 83.8 µM (inactive) | 38.4 µM (inactive) | > 100 µM (inactive) | > 100 µM (inactive) | 7.85 µM (inactive) | > 100 µM (inactive) | > 100 µM (inactive) | 74 µM (inactive) | > 100 µM (inactive) | > 100 µM (inactive) | > 10 µM (inactive) | 40.3 µM (inactive) | > 100 µM (inactive) |
| CCc1nc(N)nc(N)c1-c1ccc(NC)c([N+](=O)[O-])c1 | 0.558 µM (active) | 0.192 µM (active) | 26.1 µM (inactive) | 0.531 µM (active) | 8.41 µM (inactive) | 0.308 µM (active) | 0.904 µM (active) | 0.0631 µM (active) | 2.48 µM (inactive) | 0.586 µM (active) | 0.173 µM (active) | 1 µM (active) | 10.7 µM (inactive) | 17.1 µM (inactive) | 1.47 µM (inactive) | 43.7 µM (inactive) | 28.7 µM (inactive) | 0.481 µM (active) | 28.2 µM (inactive) | 7.93 µM (inactive) |
| c1ccc2c(c1)ccn2CCc1c[nH]c2ccccc12 | > 10 µM (inactive) | > 10 µM (inactive) | > 10 µM (inactive) | > 10 µM (inactive) | > 10 µM (inactive) | > 10 µM (inactive) | > 10 µM (inactive) | > 10 µM (inactive) | > 10 µM (inactive) | > 10 µM (inactive) | > 10 µM (inactive) | > 10 µM (inactive) | > 10 µM (inactive) | > 10 µM (inactive) | > 10 µM (inactive) | > 10 µM (inactive) | > 10 µM (inactive) | > 10 µM (inactive) | > 10 µM (inactive) | 9.86 µM (inactive) |
| NC(=O)NC1NC(=O)NC1=O (stereo not given) [ALLANTOIN] | > 100 µM (inactive) | > 100 µM (inactive) | > 100 µM (inactive) | > 100 µM (inactive) | > 100 µM (inactive) | > 100 µM (inactive) | > 100 µM (inactive) | > 100 µM (inactive) | > 100 µM (inactive) | > 100 µM (inactive) | > 100 µM (inactive) | > 100 µM (inactive) | > 100 µM (inactive) | > 100 µM (inactive) | > 100 µM (inactive) | > 100 µM (inactive) | > 100 µM (inactive) | > 100 µM (inactive) | > 100 µM (inactive) | 6 µM (inactive) |
| CN1CCC(CN2c3ccccc3Sc3ccccc32)C1 (stereo not given) [METHDILAZINE HYDROCHLORIDE] | 14.7 µM (inactive) | 16.2 µM (inactive) | 16.8 µM (inactive) | 15.2 µM (inactive) | 16.8 µM (inactive) | 14.7 µM (inactive) | 17.3 µM (inactive) | 12.3 µM (inactive) | 17.2 µM (inactive) | 10.1 µM (inactive) | 14.1 µM (inactive) | 16.3 µM (inactive) | 14.2 µM (inactive) | 16.7 µM (inactive) | 16.8 µM (inactive) | 6.44 µM (inactive) | 17.3 µM (inactive) | 19.2 µM (inactive) | 17.6 µM (inactive) | 14.8 µM (inactive) |
